According to patent US20240398694A1, “SKINCARE COMPOSITION CONTAINING SHATAVARI EXTRACT” (Bangkok Lab and Cosmetic Public Company Limited, priority 2023, published 2024):
Values joined by “and” are separate entries in the source; they are usually repeats but may differ in a detail not shown here. Equal values may be shown once. Read-outs that look alike come from different tables or passages of the source.

Tests used:
[1] = tested on: prostate cancer cells DU-145; conditions: human
Excerpt: (§1) Prostate cancer cells are the representatives of the study of 5α-reductase inhibition activity due to the production of 5α-reductase in prostate cancer cells.

5α-reductase = 5α-reductase inhibition activity in prostate cancer cells DU-145; type: cell-based, human; conditions: FIG. 5, lanes 3 and 4 vs control lane 2
Excerpt: as §1

[2] = Free-radical DPPH binding study
Excerpt: From the free-radical DPPH binding study, Shatavari extract has an SC50 of 5.92+0.03 milligrams per milliliter. […] Also, the free-radical DPPH binding activity of non-diluted Shatavari extract is 91.15+0.97%.
(§2) These are used in free-radical binding studies by the DPPH method and in free-radical nitric oxide binding using Griess reagent.

[3] = applying 10% vitamin C; cited from earlier work
[4] = Free-radical nitric oxide binding using Griess reagent; conditions: triplicate
Excerpt: as §2

breast cancer cells MCF7 = assay: Estrogen hormone stimulation activity: % survival of breast cancer cells MCF7; type: cell-based, human
Excerpt: Breast cancer cells are the representatives of the study of estrogen receptor stimulation activity because breast cancer cells are responsible for estrogen hormone.

Question: Which “highest concentration non-cytotoxic to prostate cancer cells DU-145” value [1] does the source give for `CC(C)(C)NC(=O)[C@H]1CC[C@H]2[C@@H]3CC[C@H]4NC(=O)C=C[C@]4(C)[C@H]3CC[C@]12C` [finasteride] here?
Answer: 10 micrograms per milliliter

Question: What about the “% Survival of prostate cancer cells DU-145 (means ± S.D.)” value ([1]; 0.01 μg/mL) of the same compound?
Answer: 100.19%

Question: And the “% Survival of prostate cancer cells DU-145 (means ± S.D.)” value ([1]; 0.1 μg/mL)?
Answer: 99.75%

Question: And the “% Survival of prostate cancer cells DU-145 (means ± S.D.)” value ([1]; 1 μg/mL)?
Answer: 94.89%

Question: And the “% Survival of prostate cancer cells DU-145 (means ± S.D.)” value ([1]; 100 μg/mL)?
Answer: 0%

Question: What about the “agarose gel band of 5α-reductase DNA (700-bp fragment) from treated DU-145 cells” value (5α-reductase) of the same compound?
Answer: faded

Question: Which results are given for `O=C1O[C@H]([C@@H](O)CO)C(O)=C1O` [vitamin C, L-ascorbic acid]?
Answer: SC50 (IC50) of free-radical DPPH binding [2]: 0.02 ± 0.01 milligrams per milliliter; reduction of sunburn [3]: 40-60%; reduction of the skin's redness from UVB exposure [3]: 52%; IC50 of free-radical nitric oxide binding [4]: 0.84 ± 0.02 milligrams per milliliter

Question: Which “% survival of breast cancer cells MCF7 (means ± S.D.)” value (breast cancer cells MCF7; concentration 0.1 μg/mL) does the source give for `C[C@]12CC[C@@H]3c4ccc(O)cc4CC[C@H]3[C@@H]1CC[C@@H]2O` [β-estradiol] here?
Answer: 92.14%

Question: What about the “% survival of breast cancer cells MCF7 (means ± S.D.)” value (breast cancer cells MCF7; concentration 1 μg/mL) of the same compound?
Answer: 101.82%

Question: What about the “% survival of breast cancer cells MCF7 (means ± S.D.)” value (breast cancer cells MCF7; concentration 10 μg/mL) of the same compound?
Answer: 98.84%

Question: What about the “% survival of breast cancer cells MCF7 (means ± S.D.)” value (breast cancer cells MCF7; concentration 100 μg/mL) of the same compound?
Answer: 96.53%

Question: And the “% survival of breast cancer cells MCF7 (means ± S.D.)” value (breast cancer cells MCF7; concentration 1,000 μg/mL)?
Answer: 107.2% and 107.20 ± 5.37%
